In assay [1] the target is T1, purified mutant MGL (mut-MGLL 11-313 L179S L186S) (Homo sapiens, UniProt Q99685, L169S/L176S).
T1 construct: purified mutant MGL (mut-MGLL 11-313 L179S L186S)
T1 sequence (Q99685 1-303 L169S/L176S): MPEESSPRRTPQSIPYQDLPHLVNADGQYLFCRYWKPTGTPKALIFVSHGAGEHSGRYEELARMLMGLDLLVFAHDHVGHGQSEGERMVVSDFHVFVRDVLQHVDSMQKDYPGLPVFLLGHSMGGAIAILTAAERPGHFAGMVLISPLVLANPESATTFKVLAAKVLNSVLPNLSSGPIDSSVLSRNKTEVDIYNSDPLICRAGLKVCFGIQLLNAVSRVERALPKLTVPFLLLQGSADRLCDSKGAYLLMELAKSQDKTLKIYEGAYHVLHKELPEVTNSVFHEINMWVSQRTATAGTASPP
As to the kind of experiment: MGL enzyme activity assay (4MU-B cleavage), mutant MGL. The format is biochemical. As to conditions: 10 μM 4MU-B, 5 nM enzyme, 37° C., read-out: MGL mutant inh IC50. How it is done: All rate-based assays were performed in black 384-well polypropylene PCR microplates (Abgene) in a total volume of 30 μL. Substrate 4-methylumbelliferyl butyrate (4MU-B; Sigma) and either purified mutant MGL (mut-MGLL 11-313 L179S L186S) or purified wild type MGL (wt-MGLL 6H-11-313) were diluted separately into 20 mM PIPES buffer (pH=7.0), containing 150 mM NaCl and 0.001% Tween 20. Compounds of Formula (I) were pre-dispensed (50 nL) into the assay plate using a Cartesian Hummingbird prior to adding 4MU-B (25 μL of 1.2× solution to a final concentration of 10 μM) followed by enzyme (5 μL of a 6× solution to a final concentration of 5 nM) to initiate the reaction. Final compound concentrations ranged from 17 to 0.0003 μM. The fluorescence change due to 4MU-B cleavage was monitored with excitation and emission wavelengths of 335 and 440 nm, respectively, and a bandwidth of 10 nm (Safire^2, Tecan) at 37° C. for 5 min.
The IC50 values for compounds of Formula (I) were determined using Excel from a fit of the equation to the concentration-response plot of the fractional activity as a function of inhibitor concentration.

The target of a further assay is T2, MGL (Rattus norvegicus, UniProt Q8R431).
T2 construct: one g rat brain was homogenized; from tissue; host or cells: rat brain homogenate
T2 sequence (Q8R431 1-303): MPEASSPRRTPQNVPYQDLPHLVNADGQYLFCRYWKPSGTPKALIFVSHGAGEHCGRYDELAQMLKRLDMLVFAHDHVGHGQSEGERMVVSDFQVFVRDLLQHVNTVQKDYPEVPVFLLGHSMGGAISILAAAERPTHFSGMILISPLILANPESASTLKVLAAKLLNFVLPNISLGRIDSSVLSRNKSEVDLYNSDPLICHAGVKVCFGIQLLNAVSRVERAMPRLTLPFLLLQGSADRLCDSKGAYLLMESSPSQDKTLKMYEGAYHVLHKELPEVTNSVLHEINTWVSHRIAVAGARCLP
As to the kind of experiment: 2-AG accumulation assay in rat brain homogenate. Particulars: compound @1 μM, read-out: Rat Brain 2AG % VehCntrl (%) @1 μM. The format is biochemical. Put shortly:
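Rat brain homogenate was incubated with compound for 15 min at 37° C., after which CaCl2 was added to a final concentration of 10 mM. Incubation then continued for another 15 min at 37° C. in 5 mL total volume. Reactions were stopped by adding 6 mL of 2:1 chloroform/methanol. 2-AG in the organic phase was quantified by HPLC/MS.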

The target of assay [2] is T3, purified wild type MGL (wt-MGLL 6H-11-313) (Homo sapiens, UniProt Q99685).
T3 construct: purified wild type MGL (wt-MGLL 6H-11-313)
T3 sequence (Q99685 1-303): T1 sequence (Q99685 1-303 L169S/L176S) with S169L, S176L
As to the kind of experiment: MGL enzyme activity assay (4MU-B cleavage), wild type MGL. Particulars: 10 μM 4MU-B, 5 nM enzyme, 37° C., read-out: MGL wild type inh IC50. The class given is biochemical. Put shortly: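 Enzyme (5 nM final) cleaved 4MU-B (10 μM final) in 20 mM PIPES pH 7.0 with 150 mM NaCl and 0.001% Tween 20. Compounds were tested at 17 to 0.0003 μM final. Fluorescence (ex 335/em 440 nm) was monitored at 37° C for 5 min, and IC50 was fitted from fractional activity versus inhibitor concentration.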

Another assay addresses T4, mutant MGL (Homo sapiens, UniProt Q99685, L169S/L176S).
T4 construct: purified mutant MGL (mut-MGLL 11-313 L179S L186S)
T4 sequence (Q99685 1-303 L169S/L176S): T1 sequence (Q99685 1-303 L169S/L176S)
Kind of assay: MGL ThermoFluor assay - mutant. The class given is binding. The method, boiled down:
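Thermal shift binding with 0.07 mg/ml L169S/L176S MGL, 100 μM 1,8-ANS, 200 mM NaCl, 0.001% Tween-20, 50 mM PIPES pH 7.0. Heated 40–90 °C at 1 °C/min, fluorescence (em 500 nm) tracked to give Tm; Kd fitted from 11-point concentration–Tm response, qKd when stocks quantified by qNMR.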
For orientation: In DSF a fluorescence change marks the thermal transition of the protein.

[3] abbreviates: 0.07 mg/ml mutant MGL, pH=7.0, read-out: MGL mutant ThermoFluor Kd.
The mark [4] stands for this setting: compound concentration measured by qNMR, read-out: MGL mutant ThermoFluor qKd (using qNMR conc.).

Each structure is given as a SMILES string. Residue numbers refer to the chain shown, from its start. Like-named read-outs stand apart in the source and are kept apart here. A value given as a limit tells only on which side of the number the result lay.

For the molecule `O=C(c1ccc(-c2ccccc2)cc1)N1CC(C2CCN(C(=O)c3cscn3)CC2)C1` [Cpd 1, 4-[1-(Biphenyl-4-ylcarbonyl)azetidin-3-yl]-1-(1,3-thiazol-4-ylcarbonyl)piperidine], the IC50 (commonly the midpoint of a concentration-inhibition curve) in assay [1] was determined as 79 nM; in assay [2], 258 nM. For the same molecule, at MGL, the 2-AG accumulation, percent of vehicle control at 1 µM was 109%. Also, the Kd at mutant MGL (setting [3]) was found to be 100 nM.
As to `O=C(c1ccc(-c2ccccc2)cc1)N1CC(C2CCN(C(=O)c3nccs3)CC2)C1` [Cpd 2, 4-[1-(Biphenyl-4-ylcarbonyl)azetidin-3-yl]-1-(1,3-thiazol-2-ylcarbonyl)piperidine], the IC50 in assay [1] and in assay [2] was below 5 nM in each case. For the same molecule, at MGL, the 2-AG accumulation, percent of vehicle control at 1 µM is 329%. The Kd at mutant MGL (setting [3]) came out at 8.9 nM.
`O=C(c1ccc(Cc2ccc(C(F)(F)F)cc2)cc1)N1CCC(C2CN(C(=O)c3ccc[nH]3)C2)CC1` [Cpd 65, 4-[1-(1H-Pyrrol-2-ylcarbonyl)azetidin-3-yl]-1-({4-[4-(trifluoromethyl)benzyl]phenyl}carbonyl)piperidine]: the 2-AG accumulation, percent of vehicle control at 1 µM at MGL was found to be 241%. Also, the IC50 in assay [2] was below 5 nM. Also, the Kd at mutant MGL (setting [4]) worked out at 40.4 nM.
For `O=C(c1ccc2nc(-c3ccccc3)oc2c1)N1CCC(C2CN(C(=O)c3nccs3)C2)CC1` [Cpd 66, 2-Phenyl-6-({4-[1-(1,3-thiazol-2-ylcarbonyl)azetidin-3-yl]piperidin-1-yl}carbonyl)-1,3-benzoxazole], in that order: 889%, 19.2 nM and 6.7 nM.
For `O=C(c1ccc2nc(-c3ccccc3)oc2c1)N1CCC(C2CN(C(=O)c3cscn3)C2)CC1` [Cpd 67, 2-Phenyl-6-({4-[1-(1,3-thiazol-4-ylcarbonyl)azetidin-3-yl]piperidin-1-yl}carbonyl)-1,3-benzoxazole], in that order: 590%, 66.5 nM and 6.6 nM.
Turning to `O=C(c1ccc2nc(-c3ccccc3)oc2c1)N1CCC(C2CN(C(=O)c3ccc[nH]3)C2)CC1` [Cpd 68, 2-Phenyl-6-({4-[1-(1H-pyrrol-2-ylcarbonyl)azetidin-3-yl]piperidin-1-yl}carbonyl)-1,3-benzoxazole], on MGL, the 2-AG accumulation, percent of vehicle control at 1 µM was 453%. Besides, in assay [2], the IC50 was determined as 62.1 nM. Besides, on mutant MGL (setting [4]), the Kd worked out at 14.5 nM.
For `O=C(c1nccs1)N1CC(C2CCN(C(=O)c3sc4cc(C(F)(F)F)ccc4c3Cl)CC2)C1` [Cpd 69, 1-{[3-Chloro-6-(trifluoromethyl)-1-benzothiophen-2-yl]carbonyl}-4-[1-(1,3-thiazol-2-ylcarbonyl)azetidin-3-yl]piperidine], in that order: 539%, below 5 nM and 1.2 nM.
For `O=C(c1cscn1)N1CC(C2CCN(C(=O)c3sc4cc(C(F)(F)F)ccc4c3Cl)CC2)C1` [Cpd 70, 1-{[3-Chloro-6-(trifluoromethyl)-1-benzothiophen-2-yl]carbonyl}-4-[1-(1,3-thiazol-4-ylcarbonyl)azetidin-3-yl]piperidine], in that order: 561%, 8 nM and 0.6 nM.
In the same order, the values of `O=C(c1ccc[nH]1)N1CC(C2CCN(C(=O)c3sc4cc(C(F)(F)F)ccc4c3Cl)CC2)C1` [Cpd 71, 1-{[3-Chloro-6-(trifluoromethyl)-1-benzothiophen-2-yl]carbonyl}-4-[1-(1H-pyrrol-2-ylcarbonyl)azetidin-3-yl]piperidine] are 552%, 12 nM and 1.2 nM.
Regarding `O=C(c1ccc2c(ccn2-c2ccc(F)cc2)c1)N1CCC(C2CN(C(=O)c3nccs3)C2)CC1` [Cpd 72, 1-(4-Fluorophenyl)-5-({4-[1-(1,3-thiazol-2-ylcarbonyl)azetidin-3-yl]piperidin-1-yl}carbonyl)-1H-indole], the 2-AG accumulation, percent of vehicle control at 1 µM on MGL was determined as 657%. Besides, the half-inhibitory concentration (IC50) in assay [2] was 17 nM. Further, the Kd at mutant MGL (setting [4]) is 2.7 nM.
In the same order, the values of `O=C(c1ccc2c(ccn2-c2ccc(F)cc2)c1)N1CCC(C2CN(C(=O)c3cscn3)C2)CC1` [Cpd 73, 1-(4-Fluorophenyl)-5-({4-[1-(1,3-thiazol-4-ylcarbonyl)azetidin-3-yl]piperidin-1-yl}carbonyl)-1H-indole] are 875%, 12 nM and 4.8 nM.
In the same order, the values of `O=C(c1ccc2c(ccn2-c2ccc(F)cc2)c1)N1CCC(C2CN(C(=O)c3ccc[nH]3)C2)CC1` [Cpd 74, 1-(4-Fluorophenyl)-5-({4-[1-(1H-pyrrol-2-ylcarbonyl)azetidin-3-yl]piperidin-1-yl}carbonyl)-1H-indole] are 788%, 13.8 nM and 8 nM.
In the same order, the values of `O=C(c1ccc2c(ccn2-c2ccc(C(F)(F)F)cc2)c1)N1CCC(C2CN(C(=O)c3cscn3)C2)CC1` [Cpd 76, 5-({4-[1(1,3-Thiazol-4-ylcarbonyl)azetidin-3-yl]piperidin-1-yl}carbonyl)-1-[4-(trifluoromethyl)phenyl]-1H-indole] are 731%, 11.4 nM and 8.3 nM.
In the case of `O=C(c1ccc2c(ccn2-c2ccc(C(F)(F)F)cc2)c1)N1CCC(C2CN(C(=O)c3ccc[nH]3)C2)CC1` [Cpd 77, 5-({4-[1-(1H-Pyrrol-2-ylcarbonyl)azetidin-3-yl]piperidin-1-yl}carbonyl)-1-[4-(trifluoromethyl)phenyl]-1H-indole], the 2-AG accumulation, percent of vehicle control at 1 µM on MGL is 714%. For the same molecule, the IC50 in assay [2] was below 5 nM. The Kd on mutant MGL (setting [4]) was determined as 5 nM.
For `O=C(c1ccc2c(ccn2-c2ccc(F)c(F)c2)c1)N1CCC(C2CN(C(=O)c3cscn3)C2)CC1` [Cpd 79, 1-(3,4-Difluorophenyl)-5-({4-[1-(1,3-thiazol-4-ylcarbonyl)azetidin-3-yl]piperidin-1-yl}carbonyl)-1H-indole], in that order: 946%, 9 nM and 3.3 nM.
As for `O=C(c1ccc2c(ccn2-c2ccc(F)c(F)c2)c1)N1CCC(C2CN(C(=O)c3ccc[nH]3)C2)CC1` [Cpd 80, 1-(3,4-Difluorophenyl)-5-({4-[1-(1H-pyrrol-2-ylcarbonyl)azetidin-3-yl]piperidin-1-yl}carbonyl)-1H-indole], at MGL, the 2-AG accumulation, percent of vehicle control at 1 µM amounted to 860%. For the same molecule, the IC50 in assay [2] is below 5 nM. Further, the Kd on mutant MGL (setting [4]) stood at 4.9 nM.

The record behind these values is US8513423B2 (Janssen Pharmaceutica, NV, priority 2010, dated 2013).
